In US9242996B2 (Novartis AG, priority 2013, dated 2016):

target: activated ERK2 (Homo sapiens (Human), UniProt P28482); assay: Activated ERK2 (20 pM) Kinase Assay (AlphaScreen, ERKtide phosphorylation); type: biochemical; conditions: 0.02 nM ERK2, 400 nM ERKtide peptide, 35 μM ATP, 30 min preincubation
In short: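 Activated human ERK2 (0.02 nM) preincubated 30 min with compounds, then 400 nM ERKtide and 35 μM ATP added for 4 h at ambient temperature in HEPES pH 7.5, MgCl2, DTT, Tween-20, BSA. EDTA stop; phospho-peptide read by AlphaScreen after overnight dark incubation; four-parameter IC50.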

activated ERK2, sequence (P28482 whole entry): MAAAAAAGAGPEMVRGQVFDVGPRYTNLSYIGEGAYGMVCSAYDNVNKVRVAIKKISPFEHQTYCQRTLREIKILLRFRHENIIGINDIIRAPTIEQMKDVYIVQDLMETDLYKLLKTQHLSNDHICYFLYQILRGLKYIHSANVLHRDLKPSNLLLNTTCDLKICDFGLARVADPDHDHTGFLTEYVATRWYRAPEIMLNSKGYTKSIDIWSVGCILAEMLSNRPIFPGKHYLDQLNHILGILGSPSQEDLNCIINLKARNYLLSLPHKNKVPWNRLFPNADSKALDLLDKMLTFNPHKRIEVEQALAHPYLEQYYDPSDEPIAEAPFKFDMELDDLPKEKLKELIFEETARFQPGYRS

| IC50 | SMILES |
| --- | --- |
| 0.136 nM | CO[C@H]1CC[C@H](c2cnc(N)c(-c3ccc(C(=O)N[C@H](CO)c4cc(F)cc(Br)c4)c(F)c3)n2)C[C@@H]1O [Example 469, 4-(3-amino-6-((1S,3S,4S)-3-hydroxy,4-methoxylcyclo-hexyl)pyrazin-2-yl)-2-fluoro-N-((S)-1-(3-fluoro-5-bromophenyl)-2-hydroxyethyl) benzamide] |
| 0.221 nM | Nc1ncc([C@H]2CCC(F)(F)[C@H](O)C2)nc1-c1ccc(C(=O)N[C@H](CO)c2cccc(Cl)c2)c(F)c1 [Example 470, 4-(3-amino-6-((1S,3R)-4,4-difluoro-3-hydroxycyclo-hexyl)pyrazin-2-yl)-N-((S)-1-(3-chlorophenyl)-2-hydroxyethyl)-2-fluorobenzamide] |
| 0.483 nM | Nc1ncc([C@@H]2CCC(F)(F)[C@H](O)C2)nc1-c1ccc(C(=O)N[C@H](CO)c2cccc(Cl)c2)c(F)c1 [Example 471, 4-(3-amino-6-((1R,3R)-4,4-difluoro-3-hydroxycyclo-hexyl)pyrazin-2-yl)-N-((S)-1-(3-chlorophenyl)-2-hydroxyethyl)-2-fluorobenzamide] |
| 0.179 nM | Nc1ncc([C@@H]2CCC(F)(F)[C@@H](O)C2)nc1-c1ccc(C(=O)N[C@H](CO)c2cccc(Cl)c2)c(F)c1 [Example 472, 4-(3-amino-6-((1R,3S)-4,4-difluoro-3-hydroxycyclo-hexyl)pyrazin-2-yl)-N-((S)-1-(3-chlorophenyl)-2-hydroxyethyl)-2-fluorobenzamide] |
| 2.02 nM | Nc1ncc(C(=O)N2CC(O)C2)nc1-c1ccc(C(=O)N[C@H](CO)c2cc(F)cc(Br)c2)c(F)c1 [Example 476, (S)-4-(3-amino-6-(3-hydroxyazetidine-1-carbonyl)pyrazin-2-yl)-N-(1-(3-bromo-5-fluorophenyl)-2-hydroxyethyl)-2-fluorobenzamide] |

The remaining lines, values behind:

| SMILES | IC50 |
| --- | --- |
| Nc1ncc(C(=O)N2CCOCC2)nc1-c1ccc(C(=O)N[C@H](CO)c2cc(F)cc(Br)c2)c(F)c1 [Example 473, (S)-4-(3-amino-6-(morpholine-4-carbonyl)pyrazin-2-yl)-N-(1-(3-bromo-5-fluorophenyl)-2-hydroxyethyl)-2-fluorobenzamide] | 10.5 nM |
| Nc1ncc(C(=O)N2CCOCC2)cc1-c1ccc(C(=O)N[C@H](CO)c2cc(F)cc(Br)c2)c(F)c1 [Example 474, (S)-4-(2-amino-5-(morpholine-4-carbonyl)pyridin-3-yl)-N-(1-(3-bromo-5-fluorophenyl)-2-hydroxyethyl)-2-fluorobenzamide] | 1.56 nM |
| Nc1ncc(C(=O)N2CCC(CO)CC2)nc1-c1ccc(C(=O)N[C@H](CO)c2cc(F)cc(Br)c2)c(F)c1 [Example 475, (S)-4-(3-amino-6-(4-(hydroxymethyl)piperidine-1-carbonyl)pyrazin-2-yl)-N-(1-(3-bromo-5-fluorophenyl)-2-hydroxyethyl)-2-fluorobenzamide] | 9.68 nM |
| Nc1ncc(C(=O)N2CCC(O)CC2)cc1-c1ccc(C(=O)N[C@H](CO)c2cc(F)cc(Br)c2)c(F)c1 [Example 477, (S)-4-(2-amino-5-(4-hydroxypiperidine-1-carbonyl)pyridin-3-yl)-N-(1-(3-bromo-5-fluorophenyl)-2-hydroxyethyl)-2-fluorobenzamide] | 8.59 nM |
